According to paper PMC9120017, “Inhibition mechanism of the chloride channel TMEM16A by the pore blocker 1PBC” (Nature Communications, 2022):
Read-outs that look alike come from different tables or passages of the source.

Molecular target: T1, mouse TMEM16A mutant V599A (Mus musculus, UniProt Q8BHY3, V599A)
T1 construct: expressed in transfected cells; host or cells: HEK293T
T1 sequence (Q8BHY3 1-960 V599A): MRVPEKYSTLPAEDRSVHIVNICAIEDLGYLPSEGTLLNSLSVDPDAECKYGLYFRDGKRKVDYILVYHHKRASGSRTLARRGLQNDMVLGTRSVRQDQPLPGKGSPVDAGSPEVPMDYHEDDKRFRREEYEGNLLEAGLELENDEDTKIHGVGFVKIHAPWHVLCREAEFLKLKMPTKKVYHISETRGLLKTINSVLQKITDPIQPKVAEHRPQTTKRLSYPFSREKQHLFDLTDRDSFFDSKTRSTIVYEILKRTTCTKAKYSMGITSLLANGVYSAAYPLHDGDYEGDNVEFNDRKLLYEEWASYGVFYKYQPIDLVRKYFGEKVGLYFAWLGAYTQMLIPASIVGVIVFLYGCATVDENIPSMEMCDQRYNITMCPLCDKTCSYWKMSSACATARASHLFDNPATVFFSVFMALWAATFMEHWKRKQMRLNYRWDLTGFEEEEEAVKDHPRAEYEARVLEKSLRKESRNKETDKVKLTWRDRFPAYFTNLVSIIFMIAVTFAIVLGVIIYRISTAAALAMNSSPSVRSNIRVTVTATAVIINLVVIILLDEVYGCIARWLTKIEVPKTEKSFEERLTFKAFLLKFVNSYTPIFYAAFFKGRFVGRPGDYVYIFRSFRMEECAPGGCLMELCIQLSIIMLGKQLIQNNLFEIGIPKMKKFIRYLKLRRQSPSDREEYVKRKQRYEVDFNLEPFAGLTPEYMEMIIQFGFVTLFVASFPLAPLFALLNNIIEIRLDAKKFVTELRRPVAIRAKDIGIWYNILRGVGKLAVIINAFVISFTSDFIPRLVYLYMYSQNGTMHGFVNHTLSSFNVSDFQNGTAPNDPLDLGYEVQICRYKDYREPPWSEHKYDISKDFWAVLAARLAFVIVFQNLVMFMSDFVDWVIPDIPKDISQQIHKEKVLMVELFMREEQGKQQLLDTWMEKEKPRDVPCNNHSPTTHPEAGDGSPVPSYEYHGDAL
Experiment: Inside-out patch recording of 1PBC block, mutant V599A
Format: cell-based
Conditions: for IC50: 15 µM Ca2+
Method: HEK293T cells (ATCC CRL-1573) were maintained in Dulbecco’s modified Eagle’s medium (DMEM; Sigma-Aldrich) supplemented with 10 U ml^−1 penicillin, 0.1 mg ml^−1 streptomycin (Sigma-Aldrich), 2 mM L-glutamine (Sigma-Aldrich), and 10% FBS (Sigma-Aldrich) in a humidified atmosphere containing 5% CO2 at 37 °C. HEK293S GnTI^− cells (ATCC CRL-3022) were maintained in HyClone HyCell TransFx-H medium (GE Healthcare) supplemented with 10 U ml^−1 penicillin, 0.1 mg ml^−1 streptomycin, 4 mM L-glutamine, 0.15% poloxamer 188 (Sigma-Aldrich), and 1% FBS in an atmosphere containing 5% CO2 at 185 rpm at 37 °C. The ac splice variant of mouse TMEM16A (UniProt ID: Q8BHY3), mouse TMEM16B (UniProt ID: Q8CFW1), or mouse TMEM16F (UniProt ID: Q6P9J9) bearing a 3C cleavage site, a Venus YFP, a Myc tag, and a Streptavidin-binding peptide (SBP) downstream of the open reading frame in a modified pcDNA3.1 vector (Invitrogen) were used as described previously[21],[31]. Mutations were introduced using a modified QuikChange method[58] and were verified by sequencing.
HEK293T cells were transfected with 3–4 μg DNA per 6 cm Petri dish using the calcium phosphate co-precipitation method and were used within 24–96 h after transfection. Recordings were performed on inside-out patches excised from HEK293T cells expressing the construct of interest. Patch pipettes were pulled from borosilicate glass capillaries (O.D. 1.5 mm, I.D. 0.86 mm, Sutter Instrument) and were fire-polished with a microforge (Narishige) before use. Pipette resistance was typically 3–8 MΩ when filled with the recording solutions detailed below. Seal resistance was typically 4 GΩ or higher. Voltage-clamp recordings were made using Axopatch 200B, Digidata 1550, and Clampex 10.7 (Molecular Devices). Analog signals were filtered with the in-built 4-pole Bessel filter at 10 kHz and were digitized at 20 kHz. Solution exchange was achieved using a gravity-fed system through a theta glass pipette mounted on an ultra-fast piezo-driven stepper (Siskiyou). […] All recordings were performed at 20 °C.
A symmetrical ionic condition was used throughout. Stock solution with Ca^2+-EGTA contained 150 mM NaCl, 5.99 mM Ca(OH)2, 5 mM EGTA, and 10 mM HEPES at pH 7.40. Stock solution with EGTA contained 150 mM NaCl, 5 mM EGTA, and 10 mM HEPES at pH 7.40. Free Ca^2+ concentrations were adjusted by mixing the stock solutions at the required ratios calculated using the WEBMAXC program (http://web.stanford.edu/~cpatton/webmaxcS.htm). Patch pipettes were filled with the stock solution with Ca^2+-EGTA, which has a free Ca^2+ concentration of 1 mM. 1PBC (ChemBridge) stock was reconstituted in anhydrous DMSO (Sigma-Aldrich) at 100 mM and stored at −20 °C. Working solutions with 1PBC were prepared by serial dilution. Unless otherwise stated, experiments were performed at a saturating Ca^2+ concentration as shown in Supplementary Table 1 and the primary data were corrected for current rundown as described previously[21],[25].
Concentration-response relations, obtained from the ratio of the I-V plots before and after the application of the blocker, were fitted to the Hill equation,1 I/Imax=1/1+IC50/[blocker]^h where I/Imax is the normalized current responses, IC50 defines the concentration at which inhibition is at its half-maximum, and h is the Hill coefficient.

IC50 (0 mV): 69.5 µM
remaining activity at 3 µM (0 mV, 1PBC conc 3, read-out: relative current in 1PBC (avr)): 93.5%
remaining activity at 10 µM (0 mV, 1PBC conc 10, read-out: relative current in 1PBC (avr)): 87.7%
remaining activity at 30 µM (0 mV, 1PBC conc 30, read-out: relative current in 1PBC (avr)): 72%
remaining activity at 100 µM (0 mV, 1PBC conc 100, read-out: relative current in 1PBC (avr)): 39.4%
remaining activity at 3 µM (3 µM 1PBC, +80 mV, saturating Ca2+ (15 µM), read-out: I/Imax): 93.3%
remaining activity at 3 µM (3 µM 1PBC, -80 mV, saturating Ca2+ (15 µM), read-out: I/Imax): 94.9%
remaining activity at 10 µM (10 µM 1PBC, +80 mV, saturating Ca2+ (15 µM), read-out: I/Imax): 84%
remaining activity at 10 µM (10 µM 1PBC, -80 mV, saturating Ca2+ (15 µM), read-out: I/Imax): 91.7%
remaining activity at 30 µM (30 µM 1PBC, +80 mV, saturating Ca2+ (15 µM), read-out: I/Imax): 62.6%
remaining activity at 30 µM (30 µM 1PBC, -80 mV, saturating Ca2+ (15 µM), read-out: I/Imax): 78.1%
remaining activity at 100 µM (100 µM 1PBC, +80 mV, saturating Ca2+ (15 µM), read-out: I/Imax): 27.8%
remaining activity at 100 µM (100 µM 1PBC, -80 mV, saturating Ca2+ (15 µM), read-out: I/Imax): 50.8%
IC50 (20 mV): 61.3 µM
remaining activity at 3 µM (20 mV, 1PBC conc 3, read-out: relative current in 1PBC (avr)): 93.3%
remaining activity at 10 µM (20 mV, 1PBC conc 10, read-out: relative current in 1PBC (avr)): 86.6%
remaining activity at 30 µM (20 mV, 1PBC conc 30, read-out: relative current in 1PBC (avr)): 69.3%
remaining activity at 100 µM (20 mV, 1PBC conc 100, read-out: relative current in 1PBC (avr)): 36%
IC50 (40 mV): 55.5 µM
remaining activity at 3 µM (40 mV, 1PBC conc 3, read-out: relative current in 1PBC (avr)): 93.6%
remaining activity at 10 µM (40 mV, 1PBC conc 10, read-out: relative current in 1PBC (avr)): 86.2%
remaining activity at 30 µM (40 mV, 1PBC conc 30, read-out: relative current in 1PBC (avr)): 67.1%
remaining activity at 100 µM (40 mV, 1PBC conc 100, read-out: relative current in 1PBC (avr)): 32.9%
IC50 (60 mV): 48.9 µM
remaining activity at 3 µM (60 mV, 1PBC conc 3, read-out: relative current in 1PBC (avr)): 92.4%
remaining activity at 10 µM (60 mV, 1PBC conc 10, read-out: relative current in 1PBC (avr)): 84.6%
remaining activity at 30 µM (60 mV, 1PBC conc 30, read-out: relative current in 1PBC (avr)): 64.2%
remaining activity at 100 µM (60 mV, 1PBC conc 100, read-out: relative current in 1PBC (avr)): 30%
log-fold IC50 (change of mutant vs WT) (80 mV): 1.35
IC50 (80 mV): 45.8 µM
remaining activity at 3 µM (80 mV, 1PBC conc 3, read-out: relative current in 1PBC (avr)): 93.3%
remaining activity at 10 µM (80 mV, 1PBC conc 10, read-out: relative current in 1PBC (avr)): 84%
remaining activity at 30 µM (80 mV, 1PBC conc 30, read-out: relative current in 1PBC (avr)): 62.6%
remaining activity at 100 µM (80 mV, 1PBC conc 100, read-out: relative current in 1PBC (avr)): 27.8%
IC50 (100 mV): 45 µM
remaining activity at 3 µM (100 mV, 1PBC conc 3, read-out: relative current in 1PBC (avr)): 94.2%
remaining activity at 10 µM (100 mV, 1PBC conc 10, read-out: relative current in 1PBC (avr)): 83.7%
remaining activity at 30 µM (100 mV, 1PBC conc 30, read-out: relative current in 1PBC (avr)): 62.5%
remaining activity at 100 µM (100 mV, 1PBC conc 100, read-out: relative current in 1PBC (avr)): 26.8%
IC50 (120 mV): 45.1 µM
remaining activity at 3 µM (120 mV, 1PBC conc 3, read-out: relative current in 1PBC (avr)): 95.5%
remaining activity at 10 µM (120 mV, 1PBC conc 10, read-out: relative current in 1PBC (avr)): 83.7%
remaining activity at 30 µM (120 mV, 1PBC conc 30, read-out: relative current in 1PBC (avr)): 62.1%
remaining activity at 100 µM (120 mV, 1PBC conc 100, read-out: relative current in 1PBC (avr)): 27%
IC50 (140 mV): 48.5 µM
remaining activity at 3 µM (140 mV, 1PBC conc 3, read-out: relative current in 1PBC (avr)): 97.8%
remaining activity at 10 µM (140 mV, 1PBC conc 10, read-out: relative current in 1PBC (avr)): 86.2%
remaining activity at 30 µM (140 mV, 1PBC conc 30, read-out: relative current in 1PBC (avr)): 63.1%
remaining activity at 100 µM (140 mV, 1PBC conc 100, read-out: relative current in 1PBC (avr)): 28.2%
Compound: N#Cc1c(C(F)(F)F)cc(O)n2c1nc1ccccc12 [1PBC]
